In series [1] the test system is β-amyloid protein (Aβ) production/secretion in E35 cells (H4 cells transfected with APP751). Put plainly: Cell-based assay for inhibition of production or secretion of β-amyloid protein (sandwich ELISA of Aβ in culture medium). The arrangement: species or system human. The conditions noted are these: 24 h with compound, Aβ in medium by sandwich ELISA, read-out: Activity (EC50 class, inhibition of Aβ secreted in culture medium). The protocol: Cell-Based Assay for Screening of a Compound Which Inhibits Production or Secretion of β-Amyloid Protein
E35 cells which were established by transfecting APP751 gene which is a wild type human β-amyloid protein precursor into human glioma cells (H4 cells), were used to analyze inhibitory activity of a compound against β-amyloid production. The amount of β protein (Aβ) secreted in a culture medium was measured by the sandwich enzyme-linked imunosorbent assay.
E35 cells were seeded in Dulbecco's Modified Eagle's Medium containing 10% inactivated fetal bovine serum on 96-well plates and cultured in humidified air and 5% CO2 at 37° C. in a CO2 incubator. Twenty-four hours after seeding of the cells, a test compound dissolved in DMSO was added to the medium. The DMSO solution of the compound was prepared so as to give the final concentration of DMSO in the medium 0.05%. The cells were cultured for additional twenty-four hours, and then the cultured medium was collected. The medium collected was applied to a 96-well ELISA plate on which a monoclonal antibody 25-1, which recognized Aβ25-35, was immobilized, followed by the incubation at 4° C. for 16 to 20 hours. After washing with a phosphate buffer (pH 7.4), a biotinylated monoclonal antibody MA32-40, which recognizes Aβ1-8, was added to the plate, and the plate was incubated at 4° C. for 2 hours. Then alkaline phosphatase-conjugated streptavidin was added to the plate. Alkaline phosphatase activity was measured by a […] assay using BlouPhos (manufactured by KPL) as a substrate. An amount of Aβ in the medium was calculated using a calibration curve separately created. EC50 of the test compound was presented as the concentration that gives 50% inhibitory activity compared to the control cells which were not treated with the compound.
On the technique in general: In an ELISA, binding on a coated surface is turned into a signal by an enzyme label.

Where two headings read alike, the source gives them in different places. A value given as a limit tells only on which side of the number the result lay.

For orientation: EC50 means the concentration that produces a half-maximal response. Consider `CCCCC(c1cc(F)ccc1F)[S+]([O-])c1ccc(Cl)cc1` (single isomer, unassigned) [Example 2 (Isomer 2-B), 2-[1-[(4-Chlorophenyl)sulfinyl]pentyl]-1,4-difluorobenzene], for which, in series [1] (Homo sapiens, 24 h), the EC50 is 500 to 5000 nM. With `CSCCCC(C)C(c1cc(F)ccc1F)S(=O)(=O)c1ccc(Cl)cc1` (single isomer, unassigned) [Example 43 (Isomer 43-A), 2-[1-[(4-Chlorophenyl)sulfonyl]-2-methyl-5-(methylthio)pentyl]-1,4-difluorobenzene], the EC50 in series [1] (Homo sapiens, 24 h) lay in the range of 50 to 500 nM. With `CSCCCC(C)C(c1cc(F)ccc1F)S(=O)(=O)c1ccc(Cl)cc1` (single isomer, unassigned) [Example 43 (Isomer 43-B), 2-[1-[(4-Chlorophenyl)sulfonyl]-2-methyl-5-(methylthio)pentyl]-1,4-difluorobenzene], in series [1], the EC50 is 50 to 500 nM. Take `CCCCC(c1cc(F)ccc1F)S(=O)(=O)c1ccc(Cl)cc1` (stereo not shown) [Example 3, 2-[1-[(4-Chlorophenyl)sulfonyl]pentyl]-1,4-difluorobenzene]: the EC50 in series [1] (Homo sapiens, 24 h) was 50 to 500 nM. A word on the melting point: it is the temperature, or range, at which the solid turns liquid. The molecule `CCCC(O)C(c1cc(F)ccc1F)S(=O)(=O)c1ccc(Cl)cc1` (stereo not shown) [Example 10, 1-[(4-Chlorophenyl)sulfonyl]-1-(2,5-difluorophenyl)-2-pentanol] returned a melting point of 134.5 to 135 °C. Moreover, the concentration giving a half-maximal response (EC50) in series [1] (Homo sapiens, 24 h) fell in the range of 50 to 500 nM. For `CCCC=C(c1cc(F)ccc1F)S(=O)(=O)c1ccc(Cl)cc1` [Example 12, 2-[1-[(4-Chlorophenyl)sulfonyl]-1-penten-1-yl]-1,4-difluorobenzene], in that order: 95.5 to 97 °C and 500 to 5000 nM.

`CCC=CC(c1cc(F)ccc1F)S(=O)(=O)c1ccc(Cl)cc1` (stereo not shown) [Example 14, 2-[1-[(4-Chlorophenyl)sulfonyl]-2-penten-1-yl]-1,4-difluorobenzene]: the melting point lay in the range of 99 to 100 °C. Further, the EC50 in series [1] (Homo sapiens, 24 h) fell in the range of 500 to 5000 nM. `CC(CCCCO)(c1cc(F)ccc1F)S(=O)(=O)c1ccc(Cl)cc1` (stereo not shown) [Example 17, 5-(4-Chlorophenylsulfonyl)-5-(2,5-difluorophenyl)-1-hexanol]: the EC50 in series [1] (Homo sapiens, 24 h) was in the range of 500 to 5000 nM. `CS(=O)(=O)CCCCC(c1cc(F)ccc1F)S(=O)(=O)c1ccc(Cl)cc1` (stereo not shown) [Example 27 (Compound A), 2-[1-[(4-Chlorophenyl)sulfonyl]-5-(methylsulfonyl)pentyl]-1,4-difluorobenzene]: in series [1] (Homo sapiens, 24 h), the EC50 was in the range of 50 to 500 nM. In the case of `O=S(=O)(c1ccc(Cl)cc1)C(CCCCO)c1cc(F)ccc1F` (stereo not shown) [Example 29, 5-[(4-Chlorophenyl)sulfonyl]-5-(2,5-difluorophenyl)-1-pentanol], the melting point fell in the range of 84 to 86 °C. Also, the EC50 in series [1] (Homo sapiens, 24 h) lay in the range of 50 to 500 nM. For `O=S(=O)(c1ccc(Cl)cc1)C(CCCCCO)c1cc(F)ccc1F` (stereo not shown) [Example 32, 6-[(4-Chlorophenyl)sulfonyl]-6-(2,5-difluorophenyl)-1-hexanol], in that order: 98 to 99 °C and 50 to 500 nM. Molecule `O=S(=O)(c1ccc(Cl)cc1)C1(c2cc(F)ccc2F)CCCCC1` [Example 33, 2-[1-[(4-Chlorophenyl)sulfonyl]cyclohexyl]-1,4-difluorobenzene] had a melting point of 137 to 139 °C. Moreover, the EC50 in series [1] (Homo sapiens, 24 h) was no more than 50 nM. For `O=S(=O)(c1ccc(Cl)cc1)C(CCOCCO)c1cc(F)ccc1F` (stereo not shown) [Example 35, 2-[3-[(4-Chlorophenyl)sulfonyl]-3-(2,5-difluorophenyl)propoxy]ethanol], in that order: 41 to 46 °C and 500 to 5000 nM. Molecule `O=S(=O)(c1ccc(Cl)cc1)C(c1cc(F)ccc1F)C1CCCCC1` (stereo not shown) [Example 36, 2-[[(4-Chlorophenyl)sulfonyl](cylcohexyl)methyl]-1,4-difluorobenzene] came in with a melting point of 107 to 109 °C. For the same molecule, the EC50 in series [1] (Homo sapiens, 24 h) lay within 50 to 500 nM.

For `O=S(=O)(c1ccc(Cl)cc1)C(c1ccc(CN2CCOCC2)cn1)c1cc(F)ccc1F` (stereo not shown) [Example 337, 4-[[6-[(4-Chlorophenylsulfonyl)-(2,5-difluorophenyl)methyl]pyridin-3-yl]methyl]morpholine], the melting point fell in the range of 120 to 121 °C. Consider `O=C(O)c1ccc(C(c2cc(F)ccc2F)S(=O)(=O)c2ccc(Cl)cc2)nc1` (stereo not shown) [Example 338, [6-[(4-Chlorophenylsulfonyl)-(2,5-difluorophenyl)methyl]pyridin-3-yl]carboxylic Acid], for which the melting point is greater than 230 °C.

The molecule `O=S(=O)(c1ccc(Cl)cc1)C(c1ccc[n+]([O-])c1)c1cc(F)ccc1F` (stereo not shown) [Example 339, 3-[(4-Chlorophenylsulfonyl)-(2,5-difluorophenyl)methyl]pyridin-N-oxide] came in with a melting point of 183 to 184 °C. Take `O=S(=O)(c1ccc(Cl)cc1)C(c1cc[n+]([O-])cc1)c1cc(F)ccc1F` (stereo not shown) [Example 340, 4-[(4-Chlorophenylsulfonyl)-(2,5-difluorophenyl)methyl]pyridin-N-oxide]: the melting point is 211 to 212 °C. Molecule `Fc1ccc(F)c(C(Sc2ccc(Cl)cc2)c2ccncc2Cl)c1` (stereo not shown) [Example 341, 3-Chloro-4-[(4-chlorophenylthio)-(2,5-difluorophenyl)methyl]pyridine] had a melting point of 70 to 72 °C. Same read-out and setting: as for `Fc1ccc(F)c(C(Sc2ccc(Cl)cc2)c2cc(Cl)ncc2Cl)c1` (stereo not shown) [Example 342, 2,5-Dichloro-4-[(4-chlorophenylthio)-(2,5-difluorophenyl)methyl]pyridine], the figure is 128 to 129 °C. With `[O-][S+](c1ccc(Cl)cc1)C(c1cc(F)ccc1F)c1ccncc1Cl` (stereo not shown) [Example 344, 3-Chloro-4-[(4-chlorophenylsulfinyl)-(2,5-difluorophenyl)methyl]pyridine], the EC50 in series [1] (Homo sapiens, 24 h) is no more than 50 nM. On the same count and under the same terms, as for `O=S(=O)(c1ccc(Cl)cc1)C(c1cc(F)ccc1F)c1cc(Cl)ncc1Cl` (stereo not shown) [Example 345, 2,5-Dichloro-4-[(4-chlorophenylsulfonyl)-(2,5-difluorophenyl)methyl]pyridine 0.5 hydrate], the figure is no more than 50 nM. As to `O=S(=O)(c1ccc(Cl)cc1)C(c1cc(F)ccc1F)c1cc(NCC[N+]2([O-])CCOCC2)ncc1Cl` (stereo not shown) [Example 349, 4-[2-[5-Chloro-4-[(4-chlorophenylsulfonyl)-(2,5-difluorophenyl)methyl]pyridin-2-yl]aminoethyl]morpholine N-Oxide], the EC50 in series [1] (Homo sapiens, 24 h) was no more than 50 nM. In turn, `CN(C)S(=O)(=O)NCc1ccc(C(c2cc(F)ccc2F)S(=O)(=O)c2ccc(Cl)cc2)nc1` (stereo not shown) [Example 356, N-[[6-[(4-Chlorophenylsulfonyl)(2,5-difluorophenyl)methyl]pyridin-3-yl]methyl]-N′,N′-dimethylsulfamide] gave a melting point of 177 to 178 °C.

Regarding `CCOC(=O)C(=O)NCc1ccc(C(c2cc(F)ccc2F)S(=O)(=O)c2ccc(Cl)cc2)nc1` (stereo not shown) [Example 357, Ethyl 2-[[6-[(4-chlorophenylsulfonyl)(2,5-difluorophenyl)methyl]pyridin-3-yl]methylamino]-2-oxoacetate], the melting point fell in the range of 193 to 194 °C. Still for that read-out and setting: next, `Cc1ccc(S(=O)(=O)NCC(=O)NCc2ccc(C(c3cc(F)ccc3F)S(=O)(=O)c3ccc(Cl)cc3)nc2)cc1` (stereo not shown) [Example 358, N-[[6-[(4-Chlorophenylsulfonyl)(2,5-difluorophenyl)methyl]pyridin-3-yl]methyl]-2-(4-methylphenylsulfonylamino)acetamide]: 217 to 218 °C; `CN(C)CC(=O)NCc1ccc(C(c2cc(F)ccc2F)S(=O)(=O)c2ccc(Cl)cc2)nc1` (stereo not shown) [Example 359, N-[[6-[(4-Chlorophenylsulfonyl)(2,5-difluorophenyl)methyl]pyridin-3-yl]methyl]-2-dimethylaminoacetamide]: 177 to 179 °C. `CS(=O)(=O)NCc1ccc(C(c2cc(F)ccc2F)S(=O)(=O)c2ccc(Cl)cc2)nc1` (stereo not shown) [Example 370, N-[[6-(4-Chlorophenylsulfonyl)(2,5-difluorophenyl)methylpyridin-3-yl]methyl]methanesulfonamide]: the EC50 in series [1] (Homo sapiens, 24 h) lay within 50 to 500 nM. Same read-out and setting: as for `COC(=O)OCc1ccc(C(c2cc(F)ccc2F)S(=O)(=O)c2ccc(Cl)cc2)nc1` (stereo not shown) [Example 372, [6-(4-Chlorophenylsulfonyl)(2,5-difluorophenyl)methylpyridin-3-yl]methyl Methyl Carbonate], the figure is 50 to 500 nM. In the case of `CNCCN(C)c1cc(C(c2cc(F)ccc2F)S(=O)(=O)c2ccc(Cl)cc2)c(Cl)cn1` (stereo not shown) [Example 397, 5-Chloro-4-[(4-chlorophenylsulfonyl)-(2,5-difluorophenyl)methyl]-2-[N-methyl-N-[2-(methylamino)ethyl]amino]pyridine], the EC50 in series [1] (Homo sapiens, 24 h) is no more than 50 nM. On the same count and under the same terms, as for `O=S(=O)(c1ccc(Cl)cc1)C(c1cc(F)ccc1F)c1cc(N2CCC[C@H]2CO)ncc1Cl` (stereo partly shown) [Example 399], the figure is no more than 50 nM. Turning to `NCC1CN(c2cc(C(c3cc(F)ccc3F)S(=O)(=O)c3ccc(Cl)cc3)c(Cl)cn2)CCO1` (stereo not shown) [Example 402, 2-Aminomethyl-4-[5-chloro-4-[(4-chlorophenylsulfonyl)-(2,5-difluorophenyl)methyl]pyridin-2-yl]morpholine], the EC50 in series [1] (Homo sapiens, 24 h) was no more than 50 nM.

The values above are taken from patent publication US7399775B2, “β-amyloid protein production/secretion inhibitor” (Daiichi Pharmaceutical Co., Ltd., priority 2001, dated 2008).
